Test results taken from US5872122A, “Pyrimidinylamidino β-amino acid derivatives useful as inhibitors of platelet aggregation” (Monsanto Company, priority 1997, dated 1999).

tested on: platelet aggregation; experiment: In-Vitro Platelet Aggregation in PRP (ADP-induced); assay type: cell-based; settings: Canis lupus familiaris; dog platelet-rich plasma; ADP 50 μM final; 1 min preincubation at 37° C.; read-out: IC50 (dosage at which 50% of platelet aggregation is inhibited)
Experimental: Healthy male or female dogs were fasted for 8 hours prior to drawing blood; then 30 mL whole blood was collected using a butterfly needle and 30 mL plastic syringe with 3 mL of 0.129M buffered sodium citrate (3.8%). The syringe was rotated carefully as blood was drawn to mix the citrate. Platelet-rich plasma (PRP) was prepared by centrifugation at 975×g for 3.17 minutes at room temperature allowing the centrifuge to coast to a stop without braking. The PRP was removed from the blood with a plastic pipette and placed in a plastic-capped 50 mL Corning conical sterile centrifuge tube which was held at room temperature. Platelet-poor plasma (PPP) was prepared by centrifuging the remaining blood at 2000×g for 15 minutes at room temperature allowing the centrifuge to coast to a stop without braking. The PRP was adjusted with PPP to a count of 2-3×10^8 platelets/mL. The PRP preparation (400 μL) and 50 μL of the compound solution to be tested or saline were preincubated for 1 minute at 37° C. in a BioData aggregometer (BioData, Horsham, Pa.). Adenosine-5'-diphosphate (ADP, 50 μL, 50 μM final concentration) was added to the cuvettes and the aggregation was monitored for 1 minute. All compounds are tested in duplicate. Results are calculated as follows: Percent of control=[(maximal OD minus initial OD of compound) divided by (maximal OD minus initial OD of control saline)]×100. The percent inhibition equals 100-(percent of control).
The compounds tested and their median inhibitory concentrations (IC50) are recorded in Table 1. The IC50 (dosage at which 50% of platelet aggregation is inhibited) were calculated by linear regression of the dose response curve.

Going from `N=C(N)c1cnc(CCCCC(=O)N[C@@H](CC(=O)O)C(=O)N[C@@H](Cc2ccccc2)C(N)=O)nc1` (relative stereo) [Ex. 1, [S,(R*,R*)]-3-[[5-[5-(aminoiminomethyl)-2-pyrimidinyl]-1-oxopentyl]amino]-4-[[2-amino-2-oxo-1-(phenylmethyl)ethyl]amino]-4-oxobutanoic acid] to `N=C(N)c1cnc(CCCCC(=O)N[C@@H](CC(=O)O)C(=O)N[C@@H](Cc2ccccc2)C(=O)O)nc1` [Ex. 2], the IC50 falls from 590 nM to 110 nM (5.4-fold). The second is the more potent here.

Compared with `N=C(N)c1cnc(CCCCC(=O)NC(CC(=O)O)c2ccccc2)nc1` (stereo not drawn) [Ex. 3, β-[[5-[5-(aminoiminomethyl)-2-pyrimidinyl]-1-oxopentyl]amino]-phenylpropanoic acid], `N=C(N)c1cnc(CCCCC(=O)NC(CC(=O)O)c2cccnc2)nc1` (stereo not drawn) [Ex. 6, β-[[5-[5-(aminoiminomethyl)-2-pyrimidinyl]-1-oxopentyl]amino]-3-pyridinepropanoic acid] is 4.2-fold lower in IC50: 2200 nM for the first, 530 nM for the second. The second is the more potent here.

With `N=C(N)c1cnc(CCCCC(=O)NCCC(=O)O)nc1` [Ex. 4, N-[5-[5-(aminoiminomethyl)-2-pyrimidinyl]-1-oxopentyl]-β-alanine] the IC50 was 50000 nM.
